Measured values from patent US20020048549A1, “Radioactive transition metal nitride heterocomplex” (priority 1996, published 2002).

Assay: Biodistribution of 99mTcN-DESI in SD rats (Group A alone, Group B with unlabeled desipramine)
Assay type: in vivo
Method: The biodistribution of the ^99mTcN-DESI in SD rats obtained in Example 15 was measured.
Before being injected into the rats, the ^99mTcN-DESI was separated and purified from the excess and free bidentate ligand by HPLC. The active ingredient of the complex was further purified by passage through a Sep-Pak cartridge activated with 5 ml of 95% ethanol. The final active ingredient was recovered with 95% ethanol and diluted with physiological saline containing 10% Tween 80.
The rats were divided into two groups, group A and group B. Into each rat in group A was injected 20 μCi of the ^99mTcN-DESI. Into each rat in group B were injected 20 μCi of the ^99mTcN-DESI and 1.0 mg/kg of unlabeled desipramine at the same time.
SD rats weighing about 250 g were put under intraperitoneal anesthesia with a mixture of xylazine (18 mg/kg) and ketamine (15 mg/kg) and given an injection in the jugular vein. Then, the organs (brain, heart, lung, liver, spleen, kidney, muscle, adrenal, and submaxillary gland) were excised from the rats at different intervals of time, washed and then weighed. In addition, blood samples were collected and then weighed. The data on the biodistribution are expressed as the mean±significant difference of the percentage of radioactivity level per gram of the organ weight based on the dose of radioactivity, (% dose/g). The measurement was carried out using groups of 3 rats each.

[1] = Group A (complex alone), 10 min
[2] = Group A (complex alone), 30 min
[3] = Group A (complex alone), 60 min
[4] = Group A (complex alone), 120 min
[5] = Group A (complex alone), 150 min
[6] = Group B (with 1.0 mg/kg unlabeled desipramine), 2 min
[7] = Group B (with 1.0 mg/kg unlabeled desipramine), 5 min
[8] = Group B (with 1.0 mg/kg unlabeled desipramine), 10 min
[9] = Group B (with 1.0 mg/kg unlabeled desipramine), 30 min
[10] = Group B (with 1.0 mg/kg unlabeled desipramine), 60 min
[11] = Group B (with 1.0 mg/kg unlabeled desipramine), 120 min
[12] = Group B (with 1.0 mg/kg unlabeled desipramine), 150 min

Compound: COCCC[P+]1(CCCOC)CCN(CCOC)CC[P+](CCCOC)(CCCOC)[99Tc-2]12(#[N])[NH]C(C(=O)N(C)CCCN1c3ccccc3CCc3ccccc31)C[S]2 (centres unmarked) [^99mTcN-DESI]
- Adrenal glands % dose/g (Group A (complex alone), 2 min): 4.227 ± 0.089 % dose/g
- Blood % dose/g (Group A (complex alone), 2 min): 0.383 ± 0.287 % dose/g
- Brain % dose/g (Group A (complex alone), 2 min): 0.082 ± 0.010 % dose/g
- Heart % dose/g (Group A (complex alone), 2 min): 0.904 ± 0.062 % dose/g
- Kidney % dose/g (Group A (complex alone), 2 min): 6.518 ± 0.821 % dose/g
- Liver % dose/g (Group A (complex alone), 2 min): 7.259 ± 0.005 % dose/g
- Lung % dose/g (Group A (complex alone), 2 min): 0.565 ± 0.074 % dose/g
- Muscle % dose/g (Group A (complex alone), 2 min): 0.110 ± 0.004 % dose/g
- Spleen % dose/g (Group A (complex alone), 2 min): 1.833 ± 0.249 % dose/g
- Submaxillary glands % dose/g (Group A (complex alone), 2 min): 1.791 ± 0.249 % dose/g
- Adrenal glands % dose/g (Group A (complex alone), 5 min): 3.710 ± 0.682 % dose/g
- Blood % dose/g (Group A (complex alone), 5 min): 0.349 ± 0.033 % dose/g
- Brain % dose/g (Group A (complex alone), 5 min): 0.079 ± 0.002 % dose/g
- Heart % dose/g (Group A (complex alone), 5 min): 0.881 ± 0.071 % dose/g
- Kidney % dose/g (Group A (complex alone), 5 min): 6.193 ± 0.421 % dose/g
- Liver % dose/g (Group A (complex alone), 5 min): 5.798 ± 0.549 % dose/g
- Lung % dose/g (Group A (complex alone), 5 min): 0.425 ± 0.094 % dose/g
- Muscle % dose/g (Group A (complex alone), 5 min): 0.105 ± 0.010 % dose/g
- Spleen % dose/g (Group A (complex alone), 5 min): 1.927 ± 0.155 % dose/g
- Submaxillary glands % dose/g (Group A (complex alone), 5 min): 1.721 ± 0.460 % dose/g
- Adrenal glands % dose/g [1]: 5.353 ± 0.339 % dose/g
- Blood % dose/g [1]: 0.212 ± 0.012 % dose/g
- Brain % dose/g [1]: 0.076 ± 0.003 % dose/g
- Heart % dose/g [1]: 0.894 ± 0.016 % dose/g
- Kidney % dose/g [1]: 6.295 ± 0.329 % dose/g
- Liver % dose/g [1]: 4.539 ± 0.286 % dose/g
- Lung % dose/g [1]: 0.399 ± 0.011 % dose/g
- Muscle % dose/g [1]: 0.096 ± 0.009 % dose/g
- Spleen % dose/g [1]: 2.139 ± 0.200 % dose/g
- Submaxillary glands % dose/g [1]: 1.876 ± 0.030 % dose/g
- Adrenal glands % dose/g [2]: 5.153 ± 0.039 % dose/g
- Blood % dose/g [2]: 0.095 ± 0.024 % dose/g
- Brain % dose/g [2]: 0.070 ± 0.005 % dose/g
- Heart % dose/g [2]: 0.951 ± 0.103 % dose/g
- Kidney % dose/g [2]: 10.11 ± 1.762 % dose/g
- Liver % dose/g [2]: 3.069 ± 0.672 % dose/g
- Lung % dose/g [2]: 0.351 ± 0.085 % dose/g
- Muscle % dose/g [2]: 0.098 ± 0.021 % dose/g
- Spleen % dose/g [2]: 1.965 ± 0.158 % dose/g
- Submaxillary glands % dose/g [2]: 2.065 ± 0.069 % dose/g
- Adrenal glands % dose/g [3]: 4.800 ± 1.737 % dose/g
- Blood % dose/g [3]: 0.069 ± 0.008 % dose/g
- Brain % dose/g [3]: 0.064 ± 0.003 % dose/g
- Heart % dose/g [3]: 0.931 ± 0.025 % dose/g
- Kidney % dose/g [3]: 6.227 ± 1.020 % dose/g
- Liver % dose/g [3]: 2.809 ± 0.739 % dose/g
- Lung % dose/g [3]: 0.224 ± 0.070 % dose/g
- Muscle % dose/g [3]: 0.108 ± 0.015 % dose/g
- Spleen % dose/g [3]: 1.873 ± 0.667 % dose/g
- Submaxillary glands % dose/g [3]: 1.491 ± 1.149 % dose/g
- Adrenal glands % dose/g [4]: 4.220 ± 0.182 % dose/g
- Blood % dose/g [4]: 0.068 ± 0.001 % dose/g
- Brain % dose/g [4]: 0.051 ± 0.001 % dose/g
- Heart % dose/g [4]: 0.806 ± 0.080 % dose/g
- Kidney % dose/g [4]: 5.538 ± 0.607 % dose/g
- Liver % dose/g [4]: 1.463 ± 0.186 % dose/g
- Lung % dose/g [4]: 0.151 ± 0.001 % dose/g
- Muscle % dose/g [4]: 0.397 ± 0.033 % dose/g
- Spleen % dose/g [4]: 1.453 ± 0.085 % dose/g
- Submaxillary glands % dose/g [4]: 1.351 ± 0.037 % dose/g
- Adrenal glands % dose/g [5]: 5.013 ± 1.061 % dose/g
- Blood % dose/g [5]: 0.058 ± 0.008 % dose/g
- Brain % dose/g [5]: 0.034 ± 0.004 % dose/g
- Heart % dose/g [5]: 0.884 ± 0.075 % dose/g
- Kidney % dose/g [5]: 7.182 ± 0.349 % dose/g
- Liver % dose/g [5]: 1.375 ± 0.054 % dose/g
- Lung % dose/g [5]: 0.194 ± 0.002 % dose/g
- Muscle % dose/g [5]: 0.090 ± 0.009 % dose/g
- Spleen % dose/g [5]: 1.461 ± 0.132 % dose/g
- Submaxillary glands % dose/g [5]: 1.976 ± 0.293 % dose/g
- Adrenal glands % dose/g [6]: 4.314 ± 0.718 % dose/g
- Blood % dose/g [6]: 0.467 ± 0.011 % dose/g
- Brain % dose/g [6]: 0.032 ± 0.004 % dose/g
- Heart % dose/g [6]: 0.793 ± 0.037 % dose/g
- Kidney % dose/g [6]: 5.492 ± 0.602 % dose/g
- Liver % dose/g [6]: 5.149 ± 0.787 % dose/g
- Lung % dose/g [6]: 0.488 ± 0.042 % dose/g
- Muscle % dose/g [6]: 0.103 ± 0.002 % dose/g
- Spleen % dose/g [6]: 1.841 ± 0.197 % dose/g
- Submaxillary glands % dose/g [6]: 1.878 ± 0.09 % dose/g
- Adrenal glands % dose/g [7]: 4.480 ± 0.991 % dose/g
- Blood % dose/g [7]: 0.277 ± 0.028 % dose/g
- Brain % dose/g [7]: 0.029 ± 0.003 % dose/g
- Heart % dose/g [7]: 0.819 ± 0.052 % dose/g
- Kidney % dose/g [7]: 5.899 ± 1.397 % dose/g
- Liver % dose/g [7]: 6.420 ± 0.378 % dose/g
- Lung % dose/g [7]: 0.353 ± 0.028 % dose/g
- Muscle % dose/g [7]: 0.101 ± 0.014 % dose/g
- Spleen % dose/g [7]: 2.032 ± 0.197 % dose/g
- Submaxillary glands % dose/g [7]: 1.786 ± 0.201 % dose/g
- Adrenal glands % dose/g [8]: 4.349 ± 0.164 % dose/g
- Blood % dose/g [8]: 0.170 ± 0.020 % dose/g
- Brain % dose/g [8]: 0.018 ± 0.001 % dose/g
- Heart % dose/g [8]: 0.814 ± 0.023 % dose/g
- Kidney % dose/g [8]: 5.192 ± 0.036 % dose/g
- Liver % dose/g [8]: 4.732 ± 0.057 % dose/g
- Lung % dose/g [8]: 0.348 ± 0.003 % dose/g
- Muscle % dose/g [8]: 0.086 ± 0.007 % dose/g
- Spleen % dose/g [8]: 1.559 ± 0.074 % dose/g
- Submaxillary glands % dose/g [8]: 1.669 ± 0.126 % dose/g
- Adrenal glands % dose/g [9]: 6.120 ± 2.224 % dose/g
- Blood % dose/g [9]: 0.169 ± 0.028 % dose/g
- Brain % dose/g [9]: 0.018 ± 0.003 % dose/g
- Heart % dose/g [9]: 0.832 ± 0.170 % dose/g
- Kidney % dose/g [9]: 7.883 ± 1.689 % dose/g
- Liver % dose/g [9]: 4.957 ± 0.168 % dose/g
- Lung % dose/g [9]: 0.27 ± 0.117 % dose/g
- Muscle % dose/g [9]: 0.091 ± 0.011 % dose/g
- Spleen % dose/g [9]: 1.339 ± 0.380 % dose/g
- Submaxillary glands % dose/g [9]: 1.042 ± 0.123 % dose/g
- Adrenal glands % dose/g [10]: 4.321 ± 0.712 % dose/g
- Blood % dose/g [10]: 0.074 ± 0.016 % dose/g
- Brain % dose/g [10]: 0.016 ± 0.002 % dose/g
- Heart % dose/g [10]: 0.693 ± 0.057 % dose/g
- Kidney % dose/g [10]: 5.176 ± 0.584 % dose/g
- Liver % dose/g [10]: 2.505 ± 0.113 % dose/g
- Lung % dose/g [10]: 0.253 ± 0.014 % dose/g
- Muscle % dose/g [10]: 0.110 ± 0.024 % dose/g
- Spleen % dose/g [10]: 1.403 ± 0.209 % dose/g
- Submaxillary glands % dose/g [10]: 1.596 ± 0.138 % dose/g
- Adrenal glands % dose/g [11]: 4.588 ± 0.985 % dose/g
- Blood % dose/g [11]: 0.050 ± 0.007 % dose/g
- Brain % dose/g [11]: 0.004 ± 0.000 % dose/g
- Heart % dose/g [11]: 0.745 ± 0.063 % dose/g
- Kidney % dose/g [11]: 5.737 ± 0.093 % dose/g
- Liver % dose/g [11]: 1.159 ± 0.09 % dose/g
- Lung % dose/g [11]: 0.206 ± 0.048 % dose/g
- Muscle % dose/g [11]: 0.343 ± 0.443 % dose/g
- Spleen % dose/g [11]: 1.865 ± 0.313 % dose/g
- Submaxillary glands % dose/g [11]: 1.641 ± 0.280 % dose/g
- Adrenal glands % dose/g [12]: 4.09 ± 0.294 % dose/g
- Blood % dose/g [12]: 0.050 ± 0.014 % dose/g
- Brain % dose/g [12]: 0.001 ± 0.000 % dose/g
- Heart % dose/g [12]: 0.815 ± 0.070 % dose/g
- Kidney % dose/g [12]: 5.646 ± 1.192 % dose/g
- Liver % dose/g [12]: 1.253 ± 0.006 % dose/g
- Lung % dose/g [12]: 0.163 ± 0.036 % dose/g
- Muscle % dose/g [12]: 0.096 ± 0.007 % dose/g
- Spleen % dose/g [12]: 1.637 ± 0.147 % dose/g
- Submaxillary glands % dose/g [12]: 1.983 ± 0.339 % dose/g
- accumulation in adrenal (SD rats): very large amount
- accumulation in heart (SD rats): considerable amount
- elimination through liver and kidney (SD rats): very rapidly eliminated
